According to patent US20070218121A1, “Compounds that inhibit caspase activity for treating glaucoma” (priority 1997, published 2007):

Test system: HEK-293-nNOS cells transfected with mICE-lacZ (caspase-1)
Experiment: Inhibition of caspase-induced apoptosis by endogenous NO in HEK-293-nNOS cells transfected with mICE-lacZ (propidium iodide, apoptotic nuclei count)
Assay type: cell-based
Conditions: 6 μM 4-Br-A23187 for 48 h after caspase-1 transfection; raises Ca2+ to activate nNOS and produce NO; p≦0.007; FIG. 1
Method: HEK-293 cells [Bredt et al., Nature 351: 714-719 (199)] overexpressing nNOS were transiently transfected with mICE-lacZ (containing the caspase-1 construct [Miura et al., Cell 75: 653-660 (1993)] or control placZ using the calcium phosphate precipitation method. Following transfection, cells were incubated in absence (0 μM) or presence of 6 μM 4-Br-A23187 for 48 h. Cells were then permeabilized, fixed, and stained with propidium iodide. Apoptotic nuclei were counted in ≧12 fields and results expressed as a percentage of total nuclei. The results are shown in FIG. 1. Values are the mean ± SEM for n≧3 from at least two experiments.

CNc1c(Br)cc2oc(C[C@H]3OC4(CC[C@H]3C)O[C@H]([C@H](C)C(=O)c3ccc[nH]3)[C@H](C)C[C@H]4C)nc2c1C(=O)O (stereo partly shown) [4-Br-A23187]
apoptosis (apoptotic nuclei as percentage of total nuclei): highly significant decrease in apoptosis
